Test results published in patent EP0366632A1, “Alternative energy substrates” (priority 1988, dated 1990).

Columns and labels:
Enter. cloacae = assay: Microorganism count in 2% ester emulsions (Example 12, Table 1); assay type: cell-based; settings: 2% emulsion, phosphate buffer pH=7.0, +37°C, Additive/ml 1585
Procedure: (§1) In addition to ester, the emulsions also comprised egg-yolk phospholipid 1,2% and sterile water. The emulsions were prepared aseptically, by emulsifying sterile-filtered ester with a sterilized dispersion of egg-yolk phospholipids. Aliquots of these emulsions were diluted with a phosphate buffer (0.01 M, pH=7.0) in the proportions of 1 and 10 respectively, so as to obtain 2-percent emulsions. Various microorganisms according to Table 1 below were added to these emulsions. The samples were then incubated at +37°C for 20 hours. Counting of the number of microorganisms was started after 2 and 20 hours, in the manner described in microbiological literature. Checks were run on a pure phosphate buffer with additives of the same microorganisms as earlier, in parallel with the aforesaid experiments, while checks were run in Tryptone Soya broth (TSB) with additions of the same microorganisms, in order to ascertain whether or not the microorganisms could survive, i.e. could grow under the ideal conditions. […]

[1] = tested on: Asperg. niger ATCC 16404 (mould); assay: as above; assay type: cell-based; settings: 2% emulsion, phosphate buffer pH=7.0, +37°C, Additive/ml 7943
Procedure: as §1

[2] = tested on: Ps. aeruginosa ATCC 19429; assay: as above; assay type: cell-based; settings: 2% emulsion, phosphate buffer pH=7.0, +37°C, Additive/ml 7943
Procedure: as §1

[3] = tested on: Cand. albicans ATCC 10231 (yeast); assay: as above; assay type: cell-based; settings: 2% emulsion, phosphate buffer pH=7.0, +37°C, Additive/ml 6310
Procedure: as §1

Klebs. pneum. ATCC 25955 = assay: as above; assay type: cell-based; settings: 2% emulsion, phosphate buffer pH=7.0, +37°C, Additive/ml 1995
Procedure: as §1

Proteus vulg. ATCC 13315 = assay: as above; assay type: cell-based; settings: 2% emulsion, phosphate buffer pH=7.0, +37°C, Additive/ml 1000
Procedure: as §1

Staf. aureus ATCC 6535 = assay: as above; assay type: cell-based; settings: 2% emulsion, phosphate buffer pH=7.0, +37°C, Additive/ml 5012
Procedure: as §1

Penicillium sp. (mould) = assay: as above; assay type: cell-based; settings: 2% emulsion, phosphate buffer pH=7.0, +37°C, Additive/ml 3162
Procedure: as §1

Cand. parapsil. (yeast) = assay: as above; assay type: cell-based; settings: 2% emulsion, phosphate buffer pH=7.0, +37°C, Additive/ml 5012
Procedure: as §1

Staf. epiderm. = assay: as above; assay type: cell-based; settings: 2% emulsion, phosphate buffer pH=7.0, +37°C, Additive/ml 6310
Procedure: as §1

[4] = tested on: Escherichia coli ATCC 8739; assay: Microorganism count in ester emulsions diluted with phosphate buffer, albumin solution or TSB (Example 16); assay type: cell-based
Procedure: The emulsions contained egg-yolk phospholipid 1,2% and sterile water in addition to ester. The emulsions were prepared aseptically, by emulsifying sterile-filtered ester with a sterilized dispersion of egg-yolk phospholipids.
Aliquots of these emulsions were diluted at a ratio of 1 to 10 with phosphate buffer (0.01 M, pH=7.0), seruma albumin solution 20% and Tryptone soya broth (TSB) respectively. Escherichia coli ATCC 8739 were added to the emulsions. The emulsions were then incubated for 20 hours at +37°C. The microorganism count was carried out after 1-5 minutes, 2 hours and 20 hours, in the manner described in microbiological literature. Parallel with the above tests, there was made a control of phosphate buffer and TSB with additions of Escherichia coli ATCC 8739. The latter substrate was tested to ascertain whether or not the microorganisms were viable. […] The starting concentration was about 10⁴. In the samples containing 4-methyl-3-oxo-pentanoic acid ethyl ester, the combination with phosphate buffer was 0 after 5 minutes, 0 after 2 hours and 0 after 20 hours. In the combination with 20% albumin solution, the microorganism count was 0 after 5 minutes, no count was taken after 2 hours, and 0 after 20 hours. […], the count in the combination with TSB was 0, no count was taken after 2 hours, and 0 after 20 hours.
In the samples containing 5-methyl-3-oxo-hexanoic acid ethyl ester, the count in the combination with phosphate buffer was 10 after 5 minutes, 0 after 2 hours, and 0 after 20 hours. The combination with 20% albumin solution was 10² after 5 minutes, no count was taken after 2 hours, and 0 after 20 hours. In the combination with TSB, the count was 10 after 5 minutes, no count was taken after 2 hours, and 0 after 20 hours. […] All microorganisms were eliminated within 20 hours by both esters at the same low concentration.

[5] = tested on: Escherichia coli ATCC 8739; assay: Microorganism count in 2% and 0.2% ester emulsions (Example 14); assay type: cell-based; settings: for number of microorganisms: after 1-5 minutes, +37°C, starting concentration about 10⁴
Procedure: The emulsions contained egg-yolk phospholipid 1,2% and sterile water, in addition to ester. The emulsions were prepared aseptically, by emulsifying sterile-filtered ester with a steriled dispersion of egg-yolk phospholipids.
Aliquots of these emulsions were diluted with phosphate buffer (0.01 M, pH=7.0) in the proportions of 1 and 10 and 1 and 100 in respective emulsions. Escherichia coli ATCC 8739 was added to the solutions. The solutions were then incubated at +37°C for 20 hours. The microorganism count was carried out after 1-5 minutes, 2 and 20 hours, in the manner described in microbiological literature. Parallel with the above tests, a check was carried out on phospholipide solution 1,2% and TSB (Tryptone soya broth) with additions of Escherichia coli ATCC 8739. The latter substrate was tested to ascertain whether or not the control microorganisms were viable. […] The starting concentration was about 10⁴. In the samples containing 4-methyl-3-oxo-pentanoic acid ethyl ester having the concentrations of 2% and 0.2%, the number of microorganisms present per ml after 1-5 minutes was 0 and 10⁴ respectively. After 2 hours, the microorganism count was 0 and 10 respectively, and after 20 hours 0 and 10 respectively. In the samples containing 5-methyl-3-oxo-hexanoic acid ethyl ester with the concentrations of 2% and 0.2%, the microorganism count per ml was 10 and 10 respectively after 1-5 minutes, 0 and 0 respectively after 2 hours, and 0 and 0 respectively after 20 hours.

[6] = Cold storage of fat emulsion (Intralipid) with ester admixture: visual inspection, pH, mean particle size; assay type: physicochemical
[7] = 20% emulsion diluted 1 to 10 with phosphate buffer, after 5 minutes, starting concentration about 10⁴
[8] = diluted 1 to 10 with 20% albumin solution, after 20 hours
[9] = diluted 1 to 10 with TSB, after 20 hours
[10] = diluted 1 to 10 with phosphate buffer, after 2 hours
[11] = diluted 1 to 10 with phosphate buffer, after 20 hours

For CCOC(=O)CC(=O)C(C)C [4-methyl-3-oxo-pentanoic acid ethyl ester], the number of microorganisms (Enter. cloacae; 2 hrs) was 0, the number of microorganisms (Enter. cloacae; 20 hrs) was 0 and the number of microorganisms ([1]; 2 hrs) was 3981. It also gave a number of microorganisms ([1]; 20 hrs) of 1000, a number of microorganisms ([2]; 2 hrs) of 0 and a number of microorganisms ([2]; 20 hrs) of 0. The number of microorganisms ([3]; 2 hrs) was 200, the number of microorganisms ([3]; 20 hrs) was 0 and the number of microorganisms (Klebs. pneum. ATCC 25955; 2 hrs) was 0. It also gave a number of microorganisms (Klebs. pneum. ATCC 25955; 20 hrs) of 0, a number of microorganisms (Proteus vulg. ATCC 13315; 2 hrs) of 0 and a number of microorganisms (Proteus vulg. ATCC 13315; 20 hrs) of 0. The number of microorganisms (Staf. aureus ATCC 6535; 2 hrs) was 0, the number of microorganisms (Staf. aureus ATCC 6535; 20 hrs) was 0 and the number of microorganisms (Penicillium sp. (mould); 2 hrs) was 5012. The number of microorganisms (Penicillium sp. (mould); 20 hrs) was 0, the number of microorganisms (Cand. parapsil. (yeast); 2 hrs) was 1000 and the number of microorganisms (Cand. parapsil. (yeast); 20 hrs) was 0. It also gave a number of microorganisms (Staf. epiderm.; 2 hrs) of 0, a number of microorganisms (Staf. epiderm.; 20 hrs) of 0 and a microorganism count [4, 7] of 0. For the same compound, the microorganism count ([4]; diluted 1 to 10 with 20% albumin solution, after 5 minutes) was 0, the microorganism count [4, 8] was 0 and the microorganism count ([4]; diluted 1 to 10 with TSB, after 4 hours) was 0. It also gave a microorganism count [4, 9] of 0, a microorganism count [4, 10] of 0 and a microorganism count [4, 11] of 0. The microorganism count ([5]; 0.2%, after 2 hours) was 10 per ml, the microorganism count ([5]; 0.2%, after 20 hours) was 10 per ml and the number of microorganisms ([5]; 2%) was 0 per ml. For the same compound, the microorganism count ([5]; 2%, after 2 hours) was 0 per ml, the microorganism count ([5]; 2%, after 20 hours) was 0 per ml and the “emulsion quality (oil droplets, creaming, oil separation), daily inspection” value ([6]; Example 5: mother concentrate in Intralipid 10%, 0.3% addition, +5°C, 5 days) was “had no affect on the quality”. The pH ([6]; Example 34: 20 percent fat emulsion, 3% emulsion, end of 5-day period (reference emulsion pH=7.9)) was 5.6, the “emulsion stability, daily visual inspection” value (from here on “emulsion stability”) ([6]; Example 34: pure ester in 20 percent fat emulsion, 0.1% admixture, +5°C, 5 days) was “remained stable over the whole of the test period” and the “emulsion stability” value ([6]; Example 34: pure ester in 20 percent fat emulsion, 3% admixture, +5°C, 5 days) was “remained stable for four days”.
For CCOC(=O)CC(=O)CC(C)C [5-methyl-3-oxo-hexanoic acid ethyl ester], the number of microorganisms (Enter. cloacae; 2 hrs) was 0, the number of microorganisms (Enter. cloacae; 20 hrs) was 0 and the number of microorganisms ([1]; 2 hrs) was 5012. For the same compound, the number of microorganisms ([1]; 20 hrs) was 5012, the number of microorganisms ([2]; 2 hrs) was 0 and the number of microorganisms ([2]; 20 hrs) was 0. The number of microorganisms ([3]; 2 hrs) was 1995, the number of microorganisms ([3]; 20 hrs) was 0 and the number of microorganisms (Klebs. pneum. ATCC 25955; 2 hrs) was 0. It also gave a number of microorganisms (Klebs. pneum. ATCC 25955; 20 hrs) of 0, a number of microorganisms (Proteus vulg. ATCC 13315; 2 hrs) of 0 and a number of microorganisms (Proteus vulg. ATCC 13315; 20 hrs) of 0. The number of microorganisms (Staf. aureus ATCC 6535; 2 hrs) was 0, the number of microorganisms (Staf. aureus ATCC 6535; 20 hrs) was 0 and the number of microorganisms (Penicillium sp. (mould); 2 hrs) was 3981. The number of microorganisms (Penicillium sp. (mould); 20 hrs) was 316, the number of microorganisms (Cand. parapsil. (yeast); 2 hrs) was 3162 and the number of microorganisms (Cand. parapsil. (yeast); 20 hrs) was 0. The number of microorganisms (Staf. epiderm.; 2 hrs) was 794, the number of microorganisms (Staf. epiderm.; 20 hrs) was 25 and the microorganism count [4, 7] was 10. The microorganism count [4, 8] was 0, the microorganism count ([4]; diluted 1 to 10 with TSB, after 5 minutes) was 10 and the microorganism count [4, 9] was 0. The microorganism count [4, 10] was 0, the microorganism count [4, 11] was 0 and the number of microorganisms ([5]; 0.2%) was 10 per ml. It also gave a microorganism count ([5]; 0.2%, after 2 hours) of 0 per ml, a microorganism count ([5]; 0.2%, after 20 hours) of 0 per ml and a number of microorganisms ([5]; 2%) of 10 per ml. The microorganism count ([5]; 2%, after 2 hours) was 0 per ml, the microorganism count ([5]; 2%, after 20 hours) was 0 per ml and the “emulsion stability” value ([6]; Example 33: pure ester in 20 percent emulsion, 5%, +5°C, 5 days) was “unstable”.
